# Data published in ChEMBL document CHEMBL3734744, “Synthesis, 3D pharmacophore, QSAR and docking studies of novel quinazoline derivatives with nitric oxide release moiety as preferential COX-2 inhibitors” (Medchemcomm, 2015).
# Tests used:
# [1] = target: T1, Prostaglandin G/H synthase 1 (Ovis aries, UniProt P05979); assay: Inhibition of ovine COX1 after 5 mins by enzyme immuno assay
# T1 sequence (P05979 whole entry): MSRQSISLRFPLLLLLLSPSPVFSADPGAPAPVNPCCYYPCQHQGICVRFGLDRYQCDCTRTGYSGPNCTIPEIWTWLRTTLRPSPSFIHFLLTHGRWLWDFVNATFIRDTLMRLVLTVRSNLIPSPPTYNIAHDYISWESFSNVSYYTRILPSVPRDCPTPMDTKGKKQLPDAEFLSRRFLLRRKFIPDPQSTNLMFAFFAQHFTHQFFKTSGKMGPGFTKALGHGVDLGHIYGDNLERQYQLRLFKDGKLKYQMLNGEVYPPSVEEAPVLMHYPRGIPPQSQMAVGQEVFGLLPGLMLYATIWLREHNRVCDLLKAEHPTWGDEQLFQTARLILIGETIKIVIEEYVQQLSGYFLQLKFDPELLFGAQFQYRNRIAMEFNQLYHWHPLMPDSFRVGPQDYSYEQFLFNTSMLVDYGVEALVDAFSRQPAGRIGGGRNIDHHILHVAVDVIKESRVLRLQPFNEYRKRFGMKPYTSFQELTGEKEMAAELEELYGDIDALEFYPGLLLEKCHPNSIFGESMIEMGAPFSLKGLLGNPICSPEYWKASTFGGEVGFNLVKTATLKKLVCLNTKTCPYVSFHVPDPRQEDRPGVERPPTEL
# Ovis aries = species: Ovis aries; assay: Selectivity index, ratio of IC50 for ovine COX1 to IC50 for ovine COX2
# Rattus norvegicus [2] = assay: Antiinflammatory activity in Sprague-Dawley rat assessed as inhibition of carrageenan-induced paw edema at 80 mg/kg, po administered 30 mins prior to carrageenan challenge measured at 1 hr by plethysmometer; assay type: functional
# Rattus norvegicus [3] = assay: Antiinflammatory activity in Sprague-Dawley rat assessed as inhibition of carrageenan-induced paw edema at 80 mg/kg, po administered 30 mins prior to carrageenan challenge measured at 3 hrs by plethysmometer relative to meloxicam; assay type: functional
# [4] = target: T2, Prostaglandin G/H synthase 2 (Ovis aries, UniProt P79208); assay: Inhibition of ovine COX2 after 5 mins by enzyme immuno assay
# T2 sequence (P79208 whole entry): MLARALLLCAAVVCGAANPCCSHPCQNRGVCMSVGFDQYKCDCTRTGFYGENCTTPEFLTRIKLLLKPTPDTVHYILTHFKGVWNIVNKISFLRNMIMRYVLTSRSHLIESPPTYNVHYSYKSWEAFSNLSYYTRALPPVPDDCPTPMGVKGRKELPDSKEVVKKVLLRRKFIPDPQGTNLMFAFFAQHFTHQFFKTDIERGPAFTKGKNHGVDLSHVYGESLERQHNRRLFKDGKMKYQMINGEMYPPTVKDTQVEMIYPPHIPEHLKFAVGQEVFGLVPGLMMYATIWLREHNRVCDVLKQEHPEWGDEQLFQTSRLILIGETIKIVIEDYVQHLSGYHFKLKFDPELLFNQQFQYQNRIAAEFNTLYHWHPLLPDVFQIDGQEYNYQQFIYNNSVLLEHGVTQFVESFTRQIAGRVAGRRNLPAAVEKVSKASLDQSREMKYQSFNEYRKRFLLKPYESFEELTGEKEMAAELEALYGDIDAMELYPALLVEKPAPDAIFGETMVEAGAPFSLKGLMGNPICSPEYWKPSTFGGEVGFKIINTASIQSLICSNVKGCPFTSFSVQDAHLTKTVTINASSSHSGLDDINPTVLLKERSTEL
# Rattus norvegicus [5] = assay: Antiinflammatory activity in Sprague-Dawley rat assessed as inhibition of carrageenan-induced paw edema at 80 mg/kg, po administered 30 mins prior to carrageenan challenge measured at 3 hrs by plethysmometer; assay type: functional
# Rattus norvegicus [6] = assay: Antiinflammatory activity in Sprague-Dawley rat assessed as inhibition of carrageenan-induced paw edema at 80 mg/kg, po administered 30 mins prior to carrageenan challenge measured at 2 hrs by plethysmometer; assay type: functional
# Rattus norvegicus [7] = assay: Gastrointestinal toxicity in Wistar albino rat assessed as ulcer index at 10 mg/kg/day, po administered for 3 days measured after 2 hrs post last dose; assay type: organism-based; settings: in vivo
# Rattus norvegicus [8] = assay: Gastrointestinal toxicity in Wistar albino rat assessed as ulceration at 10 mg/kg/day, po administered for 3 days measured after 2 hrs post last dose by haematoxylin/eosin staining-based microscopic analysis; assay type: organism-based; settings: in vivo
# Serum = assay: Induction of nitric oxide release in rat serum by Griess assay; assay type: functional
# Rattus norvegicus [9] = assay: Gastrointestinal toxicity in Wistar albino rat assessed as mild erosion at 10 mg/kg/day, po administered for 3 days measured after 2 hrs post last dose by haematoxylin/eosin staining-based microscopic analysis; assay type: organism-based; settings: in vivo
# Rattus norvegicus [10] = assay: Gastrointestinal toxicity in Wistar albino rat assessed as ulceration at 5 mg/kg/day, po administered for 3 days measured after 2 hrs post last dose by haematoxylin/eosin staining-based microscopic analysis; assay type: organism-based; settings: in vivo
# Rattus norvegicus [11] = assay: Gastrointestinal toxicity in Wistar albino rat assessed as irregular mucosa at 5 mg/kg/day, po administered for 3 days measured after 2 hrs post last dose by haematoxylin/eosin staining-based microscopic analysis; assay type: organism-based; settings: in vivo
# Rattus norvegicus [12] = assay: Gastrointestinal toxicity in Wistar albino rat assessed as ulcer index at 5 mg/kg/day, po administered for 3 days measured after 2 hrs post last dose; assay type: organism-based; settings: in vivo
# Rattus norvegicus [13] = assay: Gastrointestinal toxicity in Wistar albino rat assessed as intact mucosa at 10 mg/kg/day, po administered for 3 days measured after 2 hrs post last dose by haematoxylin/eosin staining-based microscopic analysis; assay type: organism-based; settings: in vivo
Compound,IC50 [1],Ratio IC50 (Ovis aries),inhibition in vivo at 80 mg/kg (Rattus norvegicus [2]),inhibition in vivo at 80 mg/kg (Rattus norvegicus [3]),IC50 [4],inhibition in vivo at 80 mg/kg (Rattus norvegicus [5]),inhibition in vivo at 80 mg/kg (Rattus norvegicus [6]),UI (Rattus norvegicus [7]),Activity (Rattus norvegicus [8]),Activity (Serum),Activity (Rattus norvegicus [9]),Activity (Rattus norvegicus [10]),Activity (Rattus norvegicus [11]),UI (Rattus norvegicus [12]),Activity (Rattus norvegicus [13])
Cc1nc2ccccc2c(=O)n1NS(=O)(=O)c1ccccc1,30.1 µM,3.5,5.6%,77.2%,8.58 µM,47.8%,22.2%,,,,,,,,
O=C(Nc1ccccc1)Nn1c(CO[N+](=O)[O-])nc2ccccc2c1=O,24.4 µM,4.11,6.4%,82.9%,5.93 µM,51.3%,25.8%,0.6,Non-toxic,22.8 µmol/L,,,,,
Cc1nc2ccccc2c(=O)n1NC(=O)NC1CCCCC1,23.8 µM,4.74,12%,88.6%,5 µM,54.8%,41.9%,,,,,,,,
Cc1nc2ccccc2c(=O)n1NC(=S)Nc1ccccc1,18.9 µM,5.13,14.4%,100%,3.67 µM,61.9%,42.9%,,,,,,,,
Cc1ccc(S(=O)(=O)Nn2c(CO[N+](=O)[O-])nc3ccccc3c2=O)cc1,38.8 µM,3.32,6.4%,71.6%,11.7 µM,44.3%,15.7%,1,Toxic,10.4 µmol/L,,,,,
CC(C)(C)NC(=O)Nn1c(CO[N+](=O)[O-])nc2ccccc2c1=O,44.6 µM,3.57,6.4%,70.6%,12.5 µM,43.7%,14.1%,0.9,,10.76 µmol/L,Toxic,,,,
Cc1ccc(S(=O)(=O)Nn2c(C)nc3ccccc3c2=O)cc1,32.7 µM,5.67,3.2%,83.9%,5.75 µM,51.9%,24.2%,,,,,,,,
CC(=O)Nc1ccc(S(=O)(=O)Nn2c(CO[N+](=O)[O-])nc3ccccc3c2=O)cc1,24.1 µM,6.72,15.2%,> 100%,3.59 µM,64.8%,40.4%,1.3,Toxic,7.9 µmol/L,,,,,
COc1ccc2c(c1)c(CC(=O)O)c(C)n2C(=O)c1ccc(Cl)cc1 [INDOMETHACIN],,,,,,,,,,,,Toxic,Toxic,1.8,
Cc1cnc(NC(=O)C2=C(O)c3ccccc3S(=O)(=O)N2C)s1 [MELOXICAM],,,20.8%,,,61.9%,43.4%,0.6,Toxic,,,,,,
O=C(NC1CCCCC1)Nn1c(CO[N+](=O)[O-])nc2ccccc2c1=O,34.6 µM,5.03,8%,80.6%,6.86 µM,49.9%,18.7%,0.4,,28.53 µmol/L,,,,,Non-toxic
O=c1c2ccccc2nc(CO[N+](=O)[O-])n1NS(=O)(=O)c1ccccc1,98.6 µM,2.41,2.4%,55%,42.1 µM,34%,11.6%,0.5,Non-toxic,16.73 µmol/L,,,,,
Cc1nc2ccccc2c(=O)n1NC(=O)NC(C)(C)C,34.5 µM,5.28,10.4%,82.5%,6.53 µM,51%,29.8%,,,,,,,,
CC(=O)Nc1ccc(S(=O)(=O)Nn2c(C)nc3ccccc3c2=O)cc1,22.8 µM,5.16,20.8%,95.7%,4.41 µM,59.2%,37.4%,,,,,,,,
